# Experimental data from US20250282794A1 (CURADEV PHARMA LTD, priority 2022, published 2025).
# Target: recombinant full length HPK-1 enzyme (Homo sapiens (Human), UniProt Q92918)
# Test: HPK-1 biochemical enzyme assay (ADP-Glo kinase inhibition)
# Details: recombinant full length HPK-1 6.8 nM, 10 μM ATP, 12.5 μM MBP, 30 mins at 25° C.
# Procedure, shortened: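 ADP-Glo readout of ADP formed after a 30 min, 25° C. reaction of 6.8 nM full-length HPK-1 with swine myelin basic protein (12.5 μM) and ATP (10 μM) in Tris pH 7.4 buffer with MgCl2, DTT and BSA. Ten compound concentrations tested; percent inhibition set against vehicle (0%) and no-enzyme (100%) controls gave IC50.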
# Chain of recombinant full length HPK-1 enzyme (Q92918 whole entry, species assumed): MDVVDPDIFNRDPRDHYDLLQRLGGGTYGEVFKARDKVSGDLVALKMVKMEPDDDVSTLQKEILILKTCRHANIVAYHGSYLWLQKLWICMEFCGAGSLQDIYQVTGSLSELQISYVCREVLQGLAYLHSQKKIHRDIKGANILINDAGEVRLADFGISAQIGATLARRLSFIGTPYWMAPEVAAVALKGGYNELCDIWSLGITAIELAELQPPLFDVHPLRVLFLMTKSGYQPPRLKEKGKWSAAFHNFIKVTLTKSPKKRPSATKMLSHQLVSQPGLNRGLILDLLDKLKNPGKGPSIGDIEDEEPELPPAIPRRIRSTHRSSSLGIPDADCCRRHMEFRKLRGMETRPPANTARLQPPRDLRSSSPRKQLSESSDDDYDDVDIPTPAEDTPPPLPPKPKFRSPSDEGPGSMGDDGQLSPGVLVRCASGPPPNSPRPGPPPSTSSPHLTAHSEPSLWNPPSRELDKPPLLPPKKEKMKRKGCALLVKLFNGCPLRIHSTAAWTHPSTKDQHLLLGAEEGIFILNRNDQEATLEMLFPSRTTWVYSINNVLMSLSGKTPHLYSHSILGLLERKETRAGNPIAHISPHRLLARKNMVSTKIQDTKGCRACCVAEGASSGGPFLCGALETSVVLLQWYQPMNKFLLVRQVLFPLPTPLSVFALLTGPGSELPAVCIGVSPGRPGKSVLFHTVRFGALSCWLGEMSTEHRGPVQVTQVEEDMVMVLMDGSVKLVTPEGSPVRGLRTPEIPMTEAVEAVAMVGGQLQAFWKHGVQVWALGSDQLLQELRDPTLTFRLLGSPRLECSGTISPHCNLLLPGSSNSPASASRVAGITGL
row,SMILES,IC50
1,"Cc1c(Nc2cc[nH]c(=O)c2C(=O)Nc2ccc(N3CC4CCC3CN4C)cc2)cnc2c1NCCO2 (stereo not drawn) [Example 235, 4-((8-methyl-2,3-dihydro-1H-pyrido[2,3-b][1,4]oxazin-7-yl)amino)-N-(4-(5-methyl-2,5-diazabicyclo[2.2.2]octan-2-yl)phenyl)-2-oxo-1,2-dihydropyridine-3-carboxamide]",≤ 10 nM
2,"Cc1c(Nc2cc[nH]c(=O)c2C(=O)Nc2ccc(N3C[C@@H]4C[C@H]3CN4C)cc2)cnc2c1NCCO2 [Example 236, 4-((8-methyl-2,3-dihydro-1H-pyrido[2,3-b][1,4]oxazin-7-yl)amino)-N-(4-((1S,4S)-5-methyl-2,5-diazabicyclo[2.2.1]heptan-2-yl)phenyl)-2-oxo-1,2-dihydropyridine-3-carboxamide]",10 to 100 nM
3,"Cc1c(Nc2cc[nH]c(=O)c2C(=O)Nc2ccc3cn[nH]c3c2)cnc2c1NCCO2 [Example 237, N-(1H-indazol-6-yl)-4-((8-methyl-2,3-dihydro-1H-pyrido[2,3-b][1,4]oxazin-7-yl)amino)-2-oxo-1,2-dihydropyridine-3-carboxamide]",10 to 100 nM
4,"Cc1c(Nc2cc[nH]c(=O)c2C(=O)Nc2ccc(N3CCN(CCC4CNC4)CC3)cc2)cnc2c1NCCO2 [Example 238, N-(4-(4-(2-(azetidin-3-yl)ethyl)piperazin-1-yl)phenyl)-4-((8-methyl-2,3-dihydro-1H-pyrido[2,3-b][1,4]oxazin-7-yl)amino)-2-oxo-1,2-dihydropyridine-3-carboxamide]",≤ 10 nM
5,"Cc1c(Nc2cc[nH]c(=O)c2C(=O)Nc2ccc3c(c2)N(C)C(=O)CO3)cnc2c1NCCO2 [Example 239, 4-((8-methyl-2,3-dihydro-1H-pyrido[2,3-b][1,4]oxazin-7-yl)amino)-N-(4-methyl-3-oxo-3,4-dihydro-2H-benzo[b][1,4]oxazin-6-yl)-2-oxo-1,2-dihydropyridine-3-carboxamide]",100 to 1000 nM
6,"Cc1c(Nc2cc[nH]c(=O)c2C(=O)Nc2ccc3c(c2)NCCO3)cnc2c1NCCO2 [Example 240, N-(3,4-dihydro-2H-benzo[b][1,4]oxazin-6-yl)-4-((8-methyl-2,3-dihydro-1H-pyrido[2,3-b][1,4]oxazin-7-yl)amino)-2-oxo-1,2-dihydropyridine-3-carboxamide]",10 to 100 nM
7,"Cc1c(Nc2cc[nH]c(=O)c2C(=O)Nc2ccc(N3CCN(C)C[C@H]3C)cc2)cnc2c1NCCO2 [Example 241, (R)-N-(4-(2,4-dimethylpiperazin-1-yl)phenyl)-4-((8-methyl-2,3-dihydro-1H-pyrido[2,3-b][1,4]oxazin-7-yl)amino)-2-oxo-1,2-dihydropyridine-3-carboxamide]",≤ 10 nM
8,"Cc1c(Nc2cc[nH]c(=O)c2C(=O)Nc2ccc(C(N)=O)cc2)cnc2c1NCCO2 [Example 242, N-(4-carbamoylphenyl)-4-((8-methyl-2,3-dihydro-1H-pyrido[2,3-b][1,4]oxazin-7-yl)amino)-2-oxo-1,2-dihydropyridine-3-carboxamide]",10 to 100 nM
9,"CC(=O)Nc1ccc(NC(=O)c2c(Nc3cnc4c(c3C)NCCO4)cc[nH]c2=O)cn1 [Example 243, N-(6-acetamidopyridin-3-yl)-4-((8-methyl-2,3-dihydro-1H-pyrido[2,3-b][1,4]oxazin-7-yl)amino)-2-oxo-1,2-dihydropyridine-3-carboxamide]",100 to 1000 nM
10,"Cc1c(Nc2cc[nH]c(=O)c2C(=O)Nc2ccc3c(c2)OCO3)cnc2c1NCCO2 [Example 244, N-(benzo[d][1,3]dioxol-5-yl)-4-((8-methyl-2,3-dihydro-1H-pyrido[2,3-b][1,4]oxazin-7-yl)amino)-2-oxo-1,2-dihydropyridine-3-carboxamide]",10 to 100 nM
11,"Cc1c(Nc2cc[nH]c(=O)c2C(=O)Nc2cccc(S(=O)(=O)CCO)c2)cnc2c1NCCO2 [Example 245, N-(3-((2-hydroxyethyl)sulfonyl)phenyl)-4-((8-methyl-2,3-dihydro-1H-pyrido[2,3-b][1,4]oxazin-7-yl)amino)-2-oxo-1,2-dihydropyridine-3-carboxamide]",100 to 1000 nM
12,"Cc1c(Nc2cc[nH]c(=O)c2C(=O)Nc2ccc3c(c2)NCCC3)cnc2c1NCCO2 [Example 246, 4-((8-methyl-2,3-dihydro-1H-pyrido[2,3-b][1,4]oxazin-7-yl)amino)-2-oxo-N-(1,2,3,4-tetrahydroquinolin-7-yl)-1,2-dihydropyridine-3-carboxamide]",10 to 100 nM
13,"Cc1c(Nc2cc[nH]c(=O)c2C(=O)Nc2ccc(N3CCC(C(N)=O)CC3)cc2)cnc2c1NCCO2 [Example 247, N-(4-(4-carbamoylpiperidin-1-yl)phenyl)-4-((8-methyl-2,3-dihydro-1H-pyrido[2,3-b][1,4]oxazin-7-yl)amino)-2-oxo-1,2-dihydropyridine-3-carboxamide]",≤ 10 nM
14,"Cc1c(Nc2cc[nH]c(=O)c2C(=O)Nc2ccc3ncsc3c2)cnc2c1NCCO2 [Example 248, N-(benzo[d]thiazol-6-yl)-4-((8-methyl-2,3-dihydro-1H-pyrido[2,3-b][1,4]oxazin-7-yl)amino)-2-oxo-1,2-dihydropyridine-3-carboxamide]",10 to 100 nM
15,"Cc1nc2ccc(NC(=O)c3c(Nc4cnc5c(c4C)NCCO5)cc[nH]c3=O)cc2s1 [Example 249, 4-((8-methyl-2,3-dihydro-1H-pyrido[2,3-b][1,4]oxazin-7-yl)amino)-N-(2-methylbenzo[d]thiazol-6-yl)-2-oxo-1,2-dihydropyridine-3-carboxamide]",10 to 100 nM
16,"Cc1c(Nc2cc[nH]c(=O)c2C(=O)Nc2ccc3c(c2)CCC(=O)N3C)cnc2c1NCCO2 [Example 250, 4-((8-methyl-2,3-dihydro-1H-pyrido[2,3-b][1,4]oxazin-7-yl)amino)-N-(1-methyl-2-oxo-1,2,3,4-tetrahydroquinolin-6-yl)-2-oxo-1,2-dihydropyridine-3-carboxamide]",10 to 100 nM
17,"CCC(=O)N1CCN(c2ccc(NC(=O)c3c(Nc4cnc5c(c4C)NCCO5)cc[nH]c3=O)cc2)CC1 [Example 251, 4-((8-methyl-2,3-dihydro-1H-pyrido[2,3-b][1,4]oxazin-7-yl)amino)-2-oxo-N-(4-(4-propionylpiperazin-1-yl)phenyl)-1,2-dihydropyridine-3-carboxamide]",≤ 10 nM
18,"Cc1c(Nc2cc[nH]c(=O)c2C(=O)Nc2ccc3c(c2)CCC(=O)N3)cnc2c1NCCO2 [Example 252, 4-((8-methyl-2,3-dihydro-1H-pyrido[2,3-b][1,4]oxazin-7-yl)amino)-2-oxo-N-(2-oxo-1,2,3,4-tetrahydroquinolin-6-yl)-1,2-dihydropyridine-3-carboxamide]",10 to 100 nM
19,"COc1ccc(Oc2ccc(NC(=O)c3c(Nc4cnc5c(c4C)NCCO5)cc[nH]c3=O)cc2)cc1 [Example 253, N-(4-(4-methoxyphenoxy)phenyl)-4-((8-methyl-2,3-dihydro-1H-pyrido[2,3-b][1,4]oxazin-7-yl)amino)-2-oxo-1,2-dihydropyridine-3-carboxamide]",100 to 1000 nM
20,"Cc1c(Nc2cc[nH]c(=O)c2C(=O)Nc2ccc3c(c2)CCCN3)cnc2c1NCCO2 [Example 254, 4-((8-methyl-2,3-dihydro-1H-pyrido[2,3-b][1,4]oxazin-7-yl)amino)-2-oxo-N-(1,2,3,4-tetrahydroquinolin-6-yl)-1,2-dihydropyridine-3-carboxamide]",10 to 100 nM
21,"Cc1c(Nc2cc[nH]c(=O)c2C(=O)Nc2ccc(-n3ccnc3)cc2)cnc2c1NCCO2 [Example 255, N-(4-(1H-imidazol-1-yl)phenyl)-4-((8-methyl-2,3-dihydro-1H-pyrido[2,3-b][1,4]oxazin-7-yl)amino)-2-oxo-1,2-dihydropyridine-3-carboxamide]",10 to 100 nM
